In patent US20230398130A1, “METHODS AND COMPOSITIONS FOR DIFFERENTIATING STEM CELLS” (Massachusetts Institute of Technology, priority 2020, published 2023):

Tests used:
ISC-enriched organoids [1] = assay: Primary screen, 384-well 2.5-D organoid differentiation (ENR+CD, 6 days, Target Selective Inhibitor Library, vs whole-plate median): ATP (CellTiter-Glo 3D, CTG); conditions: primary screen; for Dose.FC.CTG (log 2 fold change): vs plate median
ISC-enriched organoids [2] = assay: Primary screen, 384-well 2.5-D organoid differentiation (ENR+CD, 6 days): basal lysozyme secretion (LYZ.NS); type: cell-based, murine; conditions: primary screen; for Dose.FC.LYZ.NS (log 2 fold change): vs plate median
Excerpt: (§1) High-throughput screening.

ISC-enriched organoids [3] = assay: Primary screen, 384-well 2.5-D organoid differentiation (ENR+CD, 6 days): carbachol-induced lysozyme secretion (LYZ.S); type: cell-based, murine; conditions: primary screen, vs plate median
Excerpt: as §1

SMILES	Z.CTG (standard z score) (ISC-enriched organoids [1]; Dose 0.08 uM)	Dose.FC.CTG (log 2 fold change) (ISC-enriched organoids [1]; Dose 0.08 uM)	Z.CTG (standard z score) (ISC-enriched organoids [1]; Dose 0.40 uM)	Dose.FC.CTG (log 2 fold change) (ISC-enriched organoids [1]; Dose 0.40 uM)	Z.CTG (standard z score) (ISC-enriched organoids [1]; Dose 2.00 uM)	Dose.FC.CTG (log 2 fold change) (ISC-enriched organoids [1]; Dose 2.00 uM)	Z.CTG (standard z score) (ISC-enriched organoids [1]; Dose 10.00 uM)	Dose.FC.CTG (log 2 fold change) (ISC-enriched organoids [1]; Dose 10.00 uM)	Z.LYZ.NS (standard z score) (ISC-enriched organoids [2]; Dose 0.08 uM)	Dose.FC.LYZ.NS (log 2 fold change) (ISC-enriched organoids [2]; Dose 0.08 uM)	Z.LYZ.NS (standard z score) (ISC-enriched organoids [2]; Dose 0.40 uM)	Dose.FC.LYZ.NS (log 2 fold change) (ISC-enriched organoids [2]; Dose 0.40 uM)	Z.LYZ.NS (standard z score) (ISC-enriched organoids [2]; Dose 2.00 uM)	Dose.FC.LYZ.NS (log 2 fold change) (ISC-enriched organoids [2]; Dose 2.00 uM)	Z.LYZ.NS (standard z score) (ISC-enriched organoids [2]; Dose 10.00 uM)	Dose.FC.LYZ.NS (log 2 fold change) (ISC-enriched organoids [2]; Dose 10.00 uM)	Dose.FC.LYZ.S (log 2 fold change) (ISC-enriched organoids [3]; Dose 0.08 uM)	Dose.FC.LYZ.S (log 2 fold change) (ISC-enriched organoids [3]; Dose 0.40 uM)	Dose.FC.LYZ.S (log 2 fold change) (ISC-enriched organoids [3]; Dose 2.00 uM)	Dose.FC.LYZ.S (log 2 fold change) (ISC-enriched organoids [3]; Dose 10.00 uM)
C[S+]([O-])c1ccc(-c2nc(-c3ccc(F)cc3)c(-c3ccncc3)[nH]2)cc1 (stereo not shown) [SB203580]	0.479	0.201	0.356	0.149	0.567	0.237	0.435	0.182	0.805	0.092	1.109	0.127	0.453	0.052	0.199	0.023	0.148	0.098	0.077	0.069
Cc1cc(NC(=O)Nc2ccc(N(C)C)cc2)c2cc(F)cc(F)c2n1 [SB408124]	0.978	0.410	0.799	0.334	0.869	0.364	0.216	0.091	1.494	0.172	1.168	0.134	0.730	0.084	−0.607	−0.070	0.198	0.193	0.082	−0.148
O=C1NC(=O)C(c2ccccc2[N+](=O)[O-])=C1Nc1ccc(O)c(Cl)c1 [SB415286]	0.527	0.221	−0.011	−0.004	−0.231	−0.097	0.293	0.123	1.262	0.145	0.101	0.012	1.024	0.118	−0.136	−0.016	0.159	−0.008	−0.053	−0.042
O=C(Nc1ccccc1Br)N[C@@H]1CCN(c2ccc(C(F)(F)F)cn2)C1 [SB705498]	0.318	0.133	−0.102	−0.043	−0.009	−0.004	−0.089	−0.037	0.642	0.074	−0.433	−0.050	−0.008	−0.001	−0.154	−0.018	0.094	0.023	−0.030	−0.023
O=S(=O)(c1ccccc1)c1cnc2c(N3CCNCC3)cccc2c1 [SB742457]	−0.693	−0.290	−0.300	−0.126	−0.423	−0.177	−0.702	−0.294	0.108	0.012	−0.537	−0.062	0.598	0.069	0.115	0.013	−0.055	−0.029	−0.003	−0.006
Cc1ccc(C(=O)N(CCCN)[C@@H](c2oc3cc(Cl)ccc3c(=O)c2Cc2ccccc2)C(C)C)cc1 [SB743921]	−1.159	−0.485	−1.855	−0.777	−1.158	−0.485	−1.294	−0.542	−2.017	−0.232	−2.148	−0.247	−2.297	−0.264	−2.068	−0.238	−0.321	−0.329	−0.340	−0.350
O=C(NNc1nc2cc(F)ccc2n2cccc12)c1cnccn1 [SC144]	0.381	0.160	0.309	0.129	−0.613	−0.257	−2.113	−0.885	0.582	0.067	−0.112	−0.013	−0.220	−0.025	−1.355	−0.156	0.098	0.014	−0.131	−0.211
Cc1cc(Nc2ccc(NC(=O)c3ccc(Nc4ccnc5ccccc45)cc3)cc2)nc(N)n1 [SGI-1027]	0.583	0.244	0.712	0.298	0.412	0.172	0.125	0.052	0.528	0.061	0.735	0.084	1.123	0.129	−0.046	−0.005	0.060	0.145	0.094	0.018
CN1CCC(CNc2ccc3ncc(-c4cccc(OC(F)(F)F)c4)n3n2)CC1 [SGI-1776free base]	0.407	0.170	0.665	0.278	0.506	0.212	−2.468	−1.033	1.013	0.116	0.362	0.042	0.108	0.012	−1.784	−0.205	0.159	0.088	0.011	−0.317
Oc1ccc(Nc2nc(-c3ccc(Cl)cc3)cs2)cc1 [SKI II]	0.699	0.293	0.531	0.222	0.473	0.198	−0.802	−0.336	0.683	0.078	1.906	0.219	0.647	0.074	−1.362	−0.156	0.090	0.123	0.061	−0.191
O=C1NC(=O)/C(=C/c2cccc(C(F)(F)F)c2)S1 [SMI-4a]	−0.366	−0.153	−0.758	−0.317	−0.793	−0.332	−0.781	−0.327	0.188	0.022	−0.524	−0.060	0.283	0.032	−0.643	−0.074	0.036	−0.063	−0.042	−0.134
